# Source: ChEMBL document CHEMBL5291721, “A preclinical secondary pharmacology resource illuminates target-adverse drug reaction associations of marketed drugs” (Nat Commun, 2023)
# Key:
# [1] = biological target: Adenosine receptor A2a (Homo sapiens, UniProt P29274)
# [2] = biological target: D(3) dopamine receptor (Homo sapiens, UniProt P35462)
# [3] = biological target: Gamma-aminobutyric acid receptor subunit alpha-1 (Rattus norvegicus, UniProt P62813)
# [4] = biological target: T1, Cholecystokinin receptor type A (Homo sapiens, UniProt P32238)
# T1 sequence (P32238 whole entry): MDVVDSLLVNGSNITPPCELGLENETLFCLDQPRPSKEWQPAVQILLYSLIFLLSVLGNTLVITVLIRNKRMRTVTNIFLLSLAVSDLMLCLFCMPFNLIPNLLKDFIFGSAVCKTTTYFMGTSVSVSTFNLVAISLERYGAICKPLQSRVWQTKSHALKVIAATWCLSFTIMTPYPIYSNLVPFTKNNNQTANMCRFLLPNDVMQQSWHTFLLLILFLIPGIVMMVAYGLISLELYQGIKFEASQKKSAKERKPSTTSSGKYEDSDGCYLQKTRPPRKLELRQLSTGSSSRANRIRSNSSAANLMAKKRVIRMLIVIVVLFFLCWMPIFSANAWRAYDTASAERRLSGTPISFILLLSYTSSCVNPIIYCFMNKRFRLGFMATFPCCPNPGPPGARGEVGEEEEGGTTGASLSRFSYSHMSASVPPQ
# [5] = biological target: Motilin receptor (Homo sapiens, UniProt O43193)
# [6] = biological target: 5-hydroxytryptamine receptor 2B (Homo sapiens, UniProt P41595); format: functional, cell-based
# [7] = biological target: T2, Neuropeptide Y receptor type 1 (Homo sapiens, UniProt P25929)
# T2 sequence (P25929 whole entry): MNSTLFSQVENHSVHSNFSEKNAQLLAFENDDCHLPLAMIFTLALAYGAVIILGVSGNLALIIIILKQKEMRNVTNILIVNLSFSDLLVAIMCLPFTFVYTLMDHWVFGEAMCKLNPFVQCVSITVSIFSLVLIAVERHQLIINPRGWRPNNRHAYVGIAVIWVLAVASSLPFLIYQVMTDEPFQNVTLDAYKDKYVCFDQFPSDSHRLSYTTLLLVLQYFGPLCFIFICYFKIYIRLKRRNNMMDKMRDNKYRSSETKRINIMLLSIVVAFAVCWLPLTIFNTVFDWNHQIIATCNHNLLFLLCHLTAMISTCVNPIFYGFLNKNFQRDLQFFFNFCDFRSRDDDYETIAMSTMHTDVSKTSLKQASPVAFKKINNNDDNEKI
# [8] = biological target: Beta-1 adrenergic receptor (Homo sapiens, UniProt P08588); format: functional
# [9] = biological target: Histamine H2 receptor (Homo sapiens, UniProt P25021); format: functional, cell-based
# [10] = biological target: Beta-2 adrenergic receptor (Homo sapiens, UniProt P07550)
# [11] = biological target: T3, Glucocorticoid receptor (Homo sapiens, UniProt P04150)
# T3 sequence (P04150 whole entry): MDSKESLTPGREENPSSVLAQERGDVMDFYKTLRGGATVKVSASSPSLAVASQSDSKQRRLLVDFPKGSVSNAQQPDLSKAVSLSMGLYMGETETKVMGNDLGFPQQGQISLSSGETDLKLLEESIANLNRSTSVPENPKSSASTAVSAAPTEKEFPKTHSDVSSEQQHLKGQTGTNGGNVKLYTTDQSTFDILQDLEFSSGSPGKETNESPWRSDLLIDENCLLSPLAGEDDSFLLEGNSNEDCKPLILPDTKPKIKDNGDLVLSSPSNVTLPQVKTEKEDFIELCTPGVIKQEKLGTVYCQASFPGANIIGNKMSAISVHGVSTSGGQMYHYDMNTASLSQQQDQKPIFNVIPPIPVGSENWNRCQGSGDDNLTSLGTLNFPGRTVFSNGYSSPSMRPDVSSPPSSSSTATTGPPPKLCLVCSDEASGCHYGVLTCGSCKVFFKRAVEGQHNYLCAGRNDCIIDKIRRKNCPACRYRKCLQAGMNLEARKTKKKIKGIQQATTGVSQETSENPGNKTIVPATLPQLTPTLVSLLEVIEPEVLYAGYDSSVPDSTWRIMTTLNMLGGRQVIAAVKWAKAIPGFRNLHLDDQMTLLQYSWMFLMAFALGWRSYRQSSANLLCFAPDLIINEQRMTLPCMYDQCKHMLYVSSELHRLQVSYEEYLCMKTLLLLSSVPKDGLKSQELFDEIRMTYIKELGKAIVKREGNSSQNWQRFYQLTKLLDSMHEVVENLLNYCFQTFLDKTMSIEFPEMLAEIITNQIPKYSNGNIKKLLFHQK
# [12] = biological target: Histamine H3 receptor (Homo sapiens, UniProt Q9Y5N1)
# [13] = biological target: T4, Adenosine receptor A1 (Homo sapiens, UniProt P30542)
# T4 sequence (P30542 whole entry): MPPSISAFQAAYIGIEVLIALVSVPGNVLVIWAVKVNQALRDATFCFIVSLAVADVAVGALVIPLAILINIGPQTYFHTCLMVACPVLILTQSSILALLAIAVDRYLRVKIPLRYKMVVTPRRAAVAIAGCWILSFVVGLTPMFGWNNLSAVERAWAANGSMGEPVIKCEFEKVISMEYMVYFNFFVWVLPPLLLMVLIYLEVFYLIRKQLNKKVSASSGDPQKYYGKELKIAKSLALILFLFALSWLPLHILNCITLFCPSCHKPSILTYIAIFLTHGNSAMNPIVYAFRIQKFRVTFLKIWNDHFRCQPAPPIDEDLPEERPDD
# [14] = biological target: T5, Alpha-2A adrenergic receptor (Homo sapiens, UniProt P08913); format: functional, cell-based
# T5 sequence (P08913 whole entry): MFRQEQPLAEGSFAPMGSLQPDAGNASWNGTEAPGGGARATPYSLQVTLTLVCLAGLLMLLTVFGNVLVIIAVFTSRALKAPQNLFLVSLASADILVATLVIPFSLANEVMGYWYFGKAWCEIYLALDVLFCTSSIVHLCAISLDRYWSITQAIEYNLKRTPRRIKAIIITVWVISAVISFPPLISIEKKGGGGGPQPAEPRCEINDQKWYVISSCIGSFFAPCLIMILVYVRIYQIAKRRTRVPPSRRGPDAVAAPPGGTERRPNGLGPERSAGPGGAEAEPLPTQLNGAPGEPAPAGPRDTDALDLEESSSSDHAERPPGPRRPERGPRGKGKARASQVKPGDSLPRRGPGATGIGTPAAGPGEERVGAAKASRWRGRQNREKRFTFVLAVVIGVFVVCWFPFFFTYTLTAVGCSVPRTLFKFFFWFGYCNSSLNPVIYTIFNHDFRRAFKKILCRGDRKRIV
# Further: assay procedure not described here.
# D(3) dopamine receptor, sequence (P35462 whole entry): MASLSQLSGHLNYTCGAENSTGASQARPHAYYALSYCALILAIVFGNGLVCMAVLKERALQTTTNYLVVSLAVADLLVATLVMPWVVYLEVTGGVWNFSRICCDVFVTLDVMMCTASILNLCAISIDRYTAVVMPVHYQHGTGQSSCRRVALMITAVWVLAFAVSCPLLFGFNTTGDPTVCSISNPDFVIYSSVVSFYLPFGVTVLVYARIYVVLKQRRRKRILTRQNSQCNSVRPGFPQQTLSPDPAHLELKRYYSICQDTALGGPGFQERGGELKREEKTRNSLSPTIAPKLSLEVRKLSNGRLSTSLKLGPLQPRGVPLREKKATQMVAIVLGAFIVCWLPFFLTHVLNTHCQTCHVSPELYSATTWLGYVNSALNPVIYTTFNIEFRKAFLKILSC
# Adenosine receptor A2a, sequence (P29274 whole entry): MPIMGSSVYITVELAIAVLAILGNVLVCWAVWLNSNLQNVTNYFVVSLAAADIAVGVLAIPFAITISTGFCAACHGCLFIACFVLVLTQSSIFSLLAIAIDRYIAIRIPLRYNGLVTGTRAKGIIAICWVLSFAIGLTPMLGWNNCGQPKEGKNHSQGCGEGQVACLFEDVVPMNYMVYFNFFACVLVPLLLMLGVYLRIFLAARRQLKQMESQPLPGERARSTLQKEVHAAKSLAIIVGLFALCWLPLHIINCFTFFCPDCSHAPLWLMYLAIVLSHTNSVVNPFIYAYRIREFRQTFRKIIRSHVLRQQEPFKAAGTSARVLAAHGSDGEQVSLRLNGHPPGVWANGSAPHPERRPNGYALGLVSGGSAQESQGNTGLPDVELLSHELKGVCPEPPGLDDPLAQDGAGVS
# Histamine H2 receptor, sequence (P25021 whole entry): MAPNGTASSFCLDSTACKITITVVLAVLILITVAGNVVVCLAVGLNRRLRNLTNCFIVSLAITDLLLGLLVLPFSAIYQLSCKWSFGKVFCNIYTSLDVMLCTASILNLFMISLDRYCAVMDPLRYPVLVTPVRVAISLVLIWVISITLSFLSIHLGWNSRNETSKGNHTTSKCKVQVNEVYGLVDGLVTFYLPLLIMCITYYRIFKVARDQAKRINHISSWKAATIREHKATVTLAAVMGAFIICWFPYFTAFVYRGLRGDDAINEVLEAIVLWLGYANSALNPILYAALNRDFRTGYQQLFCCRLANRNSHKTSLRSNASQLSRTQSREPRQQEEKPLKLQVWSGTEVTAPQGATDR
# 5-hydroxytryptamine receptor 2B, sequence (P41595 whole entry): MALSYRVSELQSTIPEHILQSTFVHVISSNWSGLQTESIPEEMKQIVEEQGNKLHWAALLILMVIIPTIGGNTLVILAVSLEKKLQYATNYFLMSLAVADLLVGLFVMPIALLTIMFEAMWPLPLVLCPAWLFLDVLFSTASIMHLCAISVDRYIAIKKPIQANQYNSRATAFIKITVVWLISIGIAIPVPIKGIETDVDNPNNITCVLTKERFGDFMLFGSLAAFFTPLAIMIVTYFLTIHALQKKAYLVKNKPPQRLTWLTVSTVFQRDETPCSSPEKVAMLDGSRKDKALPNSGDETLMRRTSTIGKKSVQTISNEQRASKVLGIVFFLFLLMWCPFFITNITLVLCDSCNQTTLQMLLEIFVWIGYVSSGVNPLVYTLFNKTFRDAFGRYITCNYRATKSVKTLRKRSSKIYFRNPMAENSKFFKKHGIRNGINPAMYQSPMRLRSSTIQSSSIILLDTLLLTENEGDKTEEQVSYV
# Beta-1 adrenergic receptor, sequence (P08588 whole entry): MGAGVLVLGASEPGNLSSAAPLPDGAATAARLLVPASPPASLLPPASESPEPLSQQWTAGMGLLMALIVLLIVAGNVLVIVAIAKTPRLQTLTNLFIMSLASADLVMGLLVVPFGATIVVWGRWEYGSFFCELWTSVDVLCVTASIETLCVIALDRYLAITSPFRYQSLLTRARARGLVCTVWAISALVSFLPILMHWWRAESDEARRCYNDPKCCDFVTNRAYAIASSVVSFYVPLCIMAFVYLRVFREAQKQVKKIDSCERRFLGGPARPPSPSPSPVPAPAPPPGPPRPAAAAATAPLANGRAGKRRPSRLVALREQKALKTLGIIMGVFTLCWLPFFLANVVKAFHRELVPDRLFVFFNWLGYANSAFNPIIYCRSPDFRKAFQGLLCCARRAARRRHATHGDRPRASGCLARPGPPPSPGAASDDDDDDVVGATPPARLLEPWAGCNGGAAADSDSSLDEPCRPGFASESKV
# Histamine H3 receptor, sequence (Q9Y5N1 whole entry): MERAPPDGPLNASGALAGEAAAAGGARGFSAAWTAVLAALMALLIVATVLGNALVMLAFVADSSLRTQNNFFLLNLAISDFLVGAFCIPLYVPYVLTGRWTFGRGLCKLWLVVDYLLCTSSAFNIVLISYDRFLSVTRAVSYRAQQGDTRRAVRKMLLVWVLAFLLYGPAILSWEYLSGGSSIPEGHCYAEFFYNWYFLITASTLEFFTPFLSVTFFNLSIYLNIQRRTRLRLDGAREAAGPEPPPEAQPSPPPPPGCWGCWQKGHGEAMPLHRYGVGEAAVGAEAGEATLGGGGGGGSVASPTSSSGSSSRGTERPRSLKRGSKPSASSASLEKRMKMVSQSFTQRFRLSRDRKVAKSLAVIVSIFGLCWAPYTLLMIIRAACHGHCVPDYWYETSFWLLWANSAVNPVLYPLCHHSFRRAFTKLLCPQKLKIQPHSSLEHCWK
# Gamma-aminobutyric acid receptor subunit alpha-1, sequence (P62813 whole entry): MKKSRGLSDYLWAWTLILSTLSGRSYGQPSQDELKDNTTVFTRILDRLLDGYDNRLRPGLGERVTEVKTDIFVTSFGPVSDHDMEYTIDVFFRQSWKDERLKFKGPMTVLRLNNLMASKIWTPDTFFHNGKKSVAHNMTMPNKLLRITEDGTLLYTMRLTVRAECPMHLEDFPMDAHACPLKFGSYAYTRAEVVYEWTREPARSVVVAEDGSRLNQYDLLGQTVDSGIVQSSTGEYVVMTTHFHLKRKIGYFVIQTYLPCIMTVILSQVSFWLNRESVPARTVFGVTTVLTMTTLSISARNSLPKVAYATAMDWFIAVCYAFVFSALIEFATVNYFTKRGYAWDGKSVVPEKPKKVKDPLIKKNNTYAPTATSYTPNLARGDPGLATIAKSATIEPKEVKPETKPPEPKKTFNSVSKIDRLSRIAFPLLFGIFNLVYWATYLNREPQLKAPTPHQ
# Motilin receptor, sequence (O43193 whole entry): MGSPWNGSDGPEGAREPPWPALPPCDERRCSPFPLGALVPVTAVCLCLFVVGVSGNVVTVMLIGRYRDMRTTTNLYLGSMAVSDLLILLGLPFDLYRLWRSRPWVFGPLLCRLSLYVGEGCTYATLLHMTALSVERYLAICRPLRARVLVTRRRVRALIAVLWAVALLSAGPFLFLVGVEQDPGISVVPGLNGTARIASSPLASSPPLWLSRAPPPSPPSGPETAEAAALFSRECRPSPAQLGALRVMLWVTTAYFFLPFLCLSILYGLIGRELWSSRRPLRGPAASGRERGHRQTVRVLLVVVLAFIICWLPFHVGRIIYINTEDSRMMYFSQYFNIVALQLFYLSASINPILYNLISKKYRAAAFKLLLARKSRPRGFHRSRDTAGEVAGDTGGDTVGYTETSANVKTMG
# Beta-2 adrenergic receptor, sequence (P07550 whole entry): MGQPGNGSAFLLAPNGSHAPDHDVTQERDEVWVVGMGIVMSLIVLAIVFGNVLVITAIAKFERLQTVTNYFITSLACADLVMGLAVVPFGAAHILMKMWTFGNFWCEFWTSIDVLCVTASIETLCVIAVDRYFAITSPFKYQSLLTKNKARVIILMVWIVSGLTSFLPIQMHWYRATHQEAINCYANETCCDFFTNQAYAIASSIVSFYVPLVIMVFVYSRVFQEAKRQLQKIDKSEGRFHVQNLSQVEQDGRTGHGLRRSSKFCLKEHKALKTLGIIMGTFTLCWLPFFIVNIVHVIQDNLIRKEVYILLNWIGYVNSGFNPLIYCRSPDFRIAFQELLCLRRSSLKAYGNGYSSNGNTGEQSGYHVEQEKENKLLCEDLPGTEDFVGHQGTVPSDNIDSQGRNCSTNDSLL
SMILES,AC50 [1] [µM],AC50 [2] [µM],AC50 [3] [µM],AC50 [4] [µM],AC50 [5] [µM],AC50 [6] [µM],AC50 [7] [µM],AC50 [8] [µM],AC50 [9] [µM],AC50 [10] [µM],AC50 [11] [µM],AC50 [12] [µM],AC50 [13] [µM],AC50 [14] [µM]
Clc1ccc(CCC(Cn2ccnc2)Sc2c(Cl)cccc2Cl)cc1 (stereo not given) [BUTOCONAZOLE],> 30,> 30,> 30,> 30,> 30,> 30,> 30,> 30,> 30,> 30,18,> 30,> 30,> 30
Fc1ccc([C@@H]2CCNC[C@H]2COc2ccc3c(c2)OCO3)cc1 [PAROXETINE],> 30,> 10,> 10,> 30,> 10,19.1,> 30,> 10,–,9.5,> 30,> 10,> 30,–
CC(C(=O)O)c1ccc2c(c1)CC(=O)c1ccccc1S2 (stereo not given) [ZALTOPROFEN],> 30,> 30,–,> 30,> 30,> 30,> 30,–,> 30,> 30,> 30,> 30,> 30,> 30
CCc1cc2c(s1)-n1c(C)nnc1CN=C2c1ccccc1Cl [ETIZOLAM],> 30,> 30,–,> 30,> 30,> 30,> 30,> 30,> 30,> 30,> 30,> 30,> 30,> 30
CCCN(CCC)S(=O)(=O)c1ccc(C(=O)O)cc1 [PROBENECID],> 10,> 30,> 10,> 10,> 10,> 10,> 10,> 10,> 10,> 10,> 10,–,> 10,> 10
CC(=O)c1ccc(S(=O)(=O)NC(=O)NC2CCCCC2)cc1 [ACETOHEXAMIDE],> 10,> 30,> 10,> 10,> 10,> 30,> 10,> 10,> 10,> 10,> 10,–,> 10,> 30
NC(=O)NC(=O)Cc1ccccc1 [PHENACEMIDE],> 10,> 30,> 10,> 10,> 10,> 10,> 10,> 10,> 10,> 10,> 10,–,> 10,> 10
COc1ccc2cc(CCC(C)=O)ccc2c1 [NABUMETONE],> 10,> 30,> 10,> 10,> 10,> 10,> 10,> 10,> 30,> 10,> 10,–,> 10,> 10
O=C(c1cc(Cc2n[nH]c(=O)c3ccccc23)ccc1F)N1CCN(C(=O)C2CC2)CC1 [OLAPARIB],> 30,> 30,> 10,> 30,> 30,> 10,> 30,> 30,> 30,> 30,> 30,–,11.9,> 10
COc1ccc(C2C(=O)c3ccccc3C2=O)cc1 [ANISINDIONE],> 10,> 30,> 10,> 10,> 10,> 10,> 10,> 10,> 30,> 10,> 30,–,> 10,> 10
C[N+]12CCC(CC1)C(OC(=O)C(O)(c1ccccc1)c1ccccc1)C2 (stereo not given),> 30,> 30,–,> 30,> 30,> 30,> 30,> 30,> 30,> 30,> 30,> 30,> 30,> 30
COc1cc(N)c(Cl)cc1C(=O)NC1CCN(CCCOc2ccc(F)cc2)CC1OC (stereo not given) [CISAPRIDE],> 30,6.3,> 10,> 30,1.8,–,> 30,> 10,> 10,> 10,> 30,> 10,> 30,–
O=C(CCCN1CCC(O)(c2ccc(Br)cc2)CC1)c1ccc(F)cc1 [BROMPERIDOL],> 30,0.041,> 30,> 30,> 30,7.3,> 30,> 30,> 30,> 30,> 30,> 30,> 30,–
CC(=O)[C@H]1CC[C@H]2[C@@H]3C[C@H](C)C4=CC(=O)CC[C@]4(C)[C@H]3[C@@H](O)C[C@]12C [MEDRYSONE],> 10,> 30,> 10,> 10,> 10,> 10,> 10,> 10,> 10,> 10,0.005,–,> 10,> 10
